Experimental data as given in ChEMBL document CHEMBL4417633, “Inhibitory polypeptides specific to WNT inhibitors” (2017).
Where a SMILES comes first, the peptide text is derived from it.

How the values were obtained:
[1] = target: T1, Dickkopf-related protein 1 (Homo sapiens, UniProt O94907); test: Inhibition of biotin-labeled human recombinant DKK1 assessed as reduction in DKK1 interaction with LRP-6/Fc incubated overnight by chemiluminescence based Alpha-screen assay
T1 sequence (O94907 whole entry): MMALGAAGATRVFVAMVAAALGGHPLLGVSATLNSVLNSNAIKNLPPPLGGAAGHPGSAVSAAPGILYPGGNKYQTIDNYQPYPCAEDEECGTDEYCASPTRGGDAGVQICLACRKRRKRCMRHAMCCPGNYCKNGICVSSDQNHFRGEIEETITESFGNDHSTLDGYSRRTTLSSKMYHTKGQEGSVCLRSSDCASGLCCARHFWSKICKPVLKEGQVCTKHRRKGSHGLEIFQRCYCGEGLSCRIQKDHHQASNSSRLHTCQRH

[2] = target: T2, Dickkopf WNT-signaling pathway inhibitor 1 (Rattus norvegicus, UniProt A6I0Z0); test: Inhibition of biotin-labeled rat recombinant DKK1 assessed as reduction in DKK1 interaction with LRP-6/Fc incubated overnight by chemiluminescence based Alpha-screen assay
T2 sequence (A6I0Z0 whole entry): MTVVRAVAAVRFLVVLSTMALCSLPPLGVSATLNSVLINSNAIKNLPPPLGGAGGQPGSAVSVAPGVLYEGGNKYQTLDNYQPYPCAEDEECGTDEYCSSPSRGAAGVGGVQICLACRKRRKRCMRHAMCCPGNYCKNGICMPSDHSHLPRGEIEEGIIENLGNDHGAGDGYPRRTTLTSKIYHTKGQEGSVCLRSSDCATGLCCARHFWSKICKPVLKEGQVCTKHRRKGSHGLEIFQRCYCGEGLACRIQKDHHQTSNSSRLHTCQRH

Row | SMILES | IC50 [1] | IC50 [2]
1 | CC[C@H](C)[C@H](NC(=O)[C@H](CCCCN)NC(=O)[C@H](CC(=O)O)NC(=O)[C@H](C)NC(=O)[C@H](CS)NC(=O)[C@H](CCSC)NC(=O)[C@H](Cc1ccccc1)NC(=O)[C@H](CCC(=O)O)NC(=O)[C@H](CC(N)=O)NC(=O)[C@H](CO)NC(=O)[C@@H]1CCCN1C(=O)[C@@H](N)CS)C(=O)N[C@@H](CS)C(=O)N[C@@H](Cc1ccccc1)C(=O)N1CCC[C@H]1C(=O)N[C@@H](CC(C)C)C(=O)N[C@@H](CO)C(=O)N[C@@H](Cc1ccccc1)C(=O)N[C@@H](CC(C)C)C(=O)N[C@@H](CS)C(=O)N[C@@H](CC(=O)O)C(=O)NCC(=O)N[C@@H](CCC(=O)O)C(=O)N[C@@H](CC(N)=O)C(=O)N[C@@H](CC(=O)O)C(=O)N[C@@H](CS)C(=O)N[C@@H](CC(C)C)C(=O)N[C@@H](CC(=O)O)C(=O)NCC(=O)N[C@@H](CO)C(=O)N[C@@H](CC(=O)O)C(=O)N[C@@H](CCC(=O)O)C(=O)N[C@@H](CC(=O)O)C(=O)N[C@@H](Cc1ccc(O)cc1)C(=O)N[C@@H](CS)C(=O)N1CCC[C@H]1C(=O)N[C@@H](CO)C(=O)N[C@@H](CCCNC(=N)N)C(=O)N[C@H](C(=O)O)[C@@H](C)O (H-CPSNEFMCADKICFPLSFLCDGENDCLDGSDEDYCPSRT-OH) | ≤ 1 nM | ≤ 1 nM
2 | CSCC[C@H](NC(=O)[C@H](Cc1ccccc1)NC(=O)[C@H](CCC(=O)O)NC(=O)[C@H](Cc1ccc(O)cc1)NC(=O)[C@H](CO)NC(=O)[C@@H]1CCCN1C(=O)[C@@H](N)CS)C(=O)N[C@@H](CS)C(=O)N[C@@H](C)C(=O)N[C@@H](CC(=O)O)C(=O)N[C@@H](CCCCN)C(=O)N[C@@H](CCSC)C(=O)N[C@@H](CS)C(=O)N[C@@H](Cc1ccccc1)C(=O)N1CCC[C@H]1C(=O)N[C@@H](CC(C)C)C(=O)N[C@@H](CO)C(=O)N[C@@H](Cc1ccccc1)C(=O)N[C@@H](CC(C)C)C(=O)N[C@@H](CS)C(=O)N[C@@H](CC(=O)O)C(=O)NCC(=O)N[C@@H](CCC(=O)O)C(=O)N[C@@H](CC(N)=O)C(=O)N[C@@H](CC(=O)O)C(=O)N[C@@H](CS)C(=O)N[C@@H](CCC(=O)O)C(=O)N[C@@H](CC(=O)O)C(=O)NCC(=O)N[C@@H](CO)C(=O)N[C@@H](CC(=O)O)C(=O)N[C@@H](CCC(=O)O)C(=O)N[C@@H](CC(=O)O)C(=O)N[C@@H](Cc1ccc(O)cc1)C(=O)N[C@@H](CS)C(=O)N1CCC[C@H]1C(=O)N[C@@H](CO)C(=O)N[C@@H](CCCNC(=N)N)C(=O)N[C@H](C(=O)O)[C@@H](C)O (H-CPSYEFMCADKMCFPLSFLCDGENDCEDGSDEDYCPSRT-OH) | ≤ 1 nM | ≤ 1 nM
3 | CSCC[C@H](NC(=O)[C@H](CCCCN)NC(=O)[C@H](CC(=O)O)NC(=O)[C@@H]1CCCN1C(=O)[C@H](CS)NC(=O)[C@H](CCSC)NC(=O)[C@H](Cc1ccccc1)NC(=O)[C@H](CCC(=O)O)NC(=O)[C@H](CC(N)=O)NC(=O)[C@H](CO)NC(=O)[C@@H]1CCCN1C(=O)[C@@H](N)CS)C(=O)N[C@@H](CS)C(=O)N[C@@H](Cc1ccccc1)C(=O)N1CCC[C@H]1C(=O)N[C@@H](CC(C)C)C(=O)N[C@@H](CO)C(=O)N[C@@H](Cc1ccccc1)C(=O)N[C@@H](CCCNC(=N)N)C(=O)N[C@@H](CS)C(=O)N[C@@H](CC(=O)O)C(=O)NCC(=O)N[C@@H](CCC(=O)O)C(=O)N[C@@H](CC(N)=O)C(=O)N[C@@H](CC(=O)O)C(=O)N[C@@H](CS)C(=O)N[C@@H](CCC(=O)O)C(=O)N[C@@H](CC(=O)O)C(=O)NCC(=O)N[C@@H](CO)C(=O)N[C@@H](CC(=O)O)C(=O)N[C@@H](CCC(=O)O)C(=O)N[C@@H](CC(C)C)C(=O)N[C@@H](Cc1ccc(O)cc1)C(=O)N[C@@H](CS)C(=O)N1CCC[C@H]1C(=O)N[C@@H](CO)C(=O)N[C@@H](CCCNC(=N)N)C(=O)N[C@H](C(=O)O)[C@@H](C)O (H-CPSNEFMCPDKMCFPLSFRCDGENDCEDGSDELYCPSRT-OH) | ≤ 1 nM | ≤ 1 nM
